Our source for the IC50 values is PubChem BioAssay AID588711 (The Scripps Research Institute Molecular Screening Center, 2011).

Where “and” joins values, the source holds several entries; their conditions need not be identical. Equal entries are not always repeated. Calls of active or inactive are those of the source. No rule for the calls is given here. Where only a bound is given, the exact number is not on record here.

For this assay, the target named is Insulin-degrading enzyme (Homo sapiens) (UniProt P14735). The assay is described as follows: inhibitors of recombinant IDE enzyme, late-stage follow-up, counter-screen for IDE inhibitor project, biochemical, fluorescence polarization (AID 588711). (In general: The purpose of a counterscreen is to sort out artefacts and off-target activity.)
Chain of Insulin-degrading enzyme (Homo sapiens) (P14735 whole entry, looked up): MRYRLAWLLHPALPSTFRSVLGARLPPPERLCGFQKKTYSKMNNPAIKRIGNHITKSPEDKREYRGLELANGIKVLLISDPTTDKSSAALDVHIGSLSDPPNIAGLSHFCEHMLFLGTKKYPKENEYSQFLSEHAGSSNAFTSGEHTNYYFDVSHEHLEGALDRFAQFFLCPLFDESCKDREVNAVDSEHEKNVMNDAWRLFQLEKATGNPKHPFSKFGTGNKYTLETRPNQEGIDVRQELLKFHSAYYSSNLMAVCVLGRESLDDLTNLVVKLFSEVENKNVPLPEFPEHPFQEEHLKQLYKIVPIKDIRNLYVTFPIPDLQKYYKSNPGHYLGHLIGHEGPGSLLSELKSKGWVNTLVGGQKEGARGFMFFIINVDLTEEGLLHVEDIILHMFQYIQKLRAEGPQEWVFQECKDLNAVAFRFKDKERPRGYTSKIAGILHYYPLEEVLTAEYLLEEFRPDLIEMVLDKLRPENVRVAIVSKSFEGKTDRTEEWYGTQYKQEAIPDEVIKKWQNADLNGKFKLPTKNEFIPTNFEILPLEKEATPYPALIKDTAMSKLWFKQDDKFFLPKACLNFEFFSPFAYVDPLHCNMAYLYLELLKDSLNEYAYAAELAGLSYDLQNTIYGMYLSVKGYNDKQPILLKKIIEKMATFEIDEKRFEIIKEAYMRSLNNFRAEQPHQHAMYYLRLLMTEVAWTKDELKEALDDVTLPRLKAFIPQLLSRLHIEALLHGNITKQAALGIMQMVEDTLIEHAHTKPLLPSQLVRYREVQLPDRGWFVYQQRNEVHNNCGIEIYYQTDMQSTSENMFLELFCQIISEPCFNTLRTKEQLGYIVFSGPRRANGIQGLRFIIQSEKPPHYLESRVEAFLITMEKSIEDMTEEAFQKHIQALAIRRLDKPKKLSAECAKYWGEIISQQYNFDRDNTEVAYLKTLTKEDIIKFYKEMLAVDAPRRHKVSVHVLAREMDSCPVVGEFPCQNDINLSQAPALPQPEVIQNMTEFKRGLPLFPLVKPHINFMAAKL
For the molecule `COc1cc(/C=C2\SC(=S)N(NC(C)=O)C2=O)ccc1OC(=O)c1ccco1`, the IC50 (in general, the concentration at which inhibition is half-maximal) was “inactive”. For the molecule `Cc1ccc(C)c(N2C(=N)S/C(=C\c3ccc(-c4ccccc4C(=O)O)o3)C2=O)c1`, the IC50 was > 54.7 µM (inactive). On to `Cc1ccc(-c2nc(C(=O)Nc3cccc(C(F)(F)F)c3)cs2)cc1`, for which the IC50 is > 54.7 µM (inactive). Next, `O=C(CSc1nnc(-c2cccc(Cl)c2)n1Cc1ccco1)Nc1ccccc1C(F)(F)F`: > 54.7 µM (inactive).

On to `O=C(Nc1cccc(C(F)(F)F)c1)c1csc(Cc2cccc(C(F)(F)F)c2)n1`, for which the IC50 was > 54.7 µM (inactive). With `CCOc1ccc2[nH]c3c(N4CCN(C(=O)c5ccco5)CC4)ncnc3c2c1`, the IC50 was 8.54 µM. As for `COc1ccc(-c2nc(C(=O)Nc3cccc(C(F)(F)F)c3)cs2)cc1`, the IC50 was > 54.7 µM (inactive).

Regarding `Cc1cccc(-c2nnc(SCc3nc4ccccc4[nH]3)n2Cc2ccco2)c1`, the IC50 was 7.21 µM and 6.15 µM. For the molecule `O=C(CSc1nnc(-c2cccc(Cl)c2)n1Cc1ccco1)Nc1ccc2cn[nH]c2c1`, the IC50 is > 54.7 µM (inactive). In the case of `O=C(Nc1cccc(C(F)(F)F)c1)c1csc(-c2ccncc2)n1` it was 2.8 µM; in that of `O=C(Nc1cccc(C(F)(F)F)c1)c1csc(-c2ccccc2)n1`, > 54.7 µM (inactive); in that of `O=C(Nc1cccc(C(F)(F)F)c1)c1csc(-c2cccc(C(F)(F)F)c2)n1`, > 54.7 µM (inactive).

With `O=C(C1CC1)N1CCN(c2ccnc3cc(Cl)ccc23)CC1`, the IC50 result is “inactive”. With `Cc1nc(-c2cccnc2)sc1C(=O)Nc1cccc(C(F)(F)F)c1`, the IC50 was > 54.7 µM (inactive). Turning to `O=C(Nc1cc(C(F)(F)F)cc(C(F)(F)F)c1)c1csc(-c2ccncc2)n1`, the IC50 was > 54.7 µM (inactive).

Take `O=C(Nc1ccc2oc(-c3cccnc3)nc2c1)c1ccc2c(c1)OCCO2`: the IC50 was > 54.7 µM (inactive).

Regarding `Clc1cccc(-c2nnc(SCc3nc4ccccc4[nH]3)n2Cc2ccco2)c1`, the IC50 is 2.34 µM. Next, `COc1cccc(-c2nnc(SCc3nc4ccccc4[nH]3)n2Cc2ccco2)c1`: 5.9 µM; `O=C(CSc1nnc(-c2cccc(Cl)c2)n1Cc1ccco1)c1ccc2ccccc2c1`: > 54.7 µM (inactive). Consider `COc1ccc(NC(=O)CSc2nnc(CN3CCOCC3)n2C)cc1Cl`, for which the IC50 is > 54.7 µM (inactive). In the case of `COc1ccc(C(=O)N2CCN(C(=O)C3COc4ccccc4O3)CC2)cc1OC` (stereo not given) it was “inactive”; in that of `Cc1ccc(NC(=O)CSc2nnc(-c3cccc(Cl)c3)n2Cc2ccco2)c(C)c1`, > 54.7 µM (inactive); in that of `CC(Sc1nnc(-c2cccnc2)n1-c1ccccc1F)C(=O)N1CCCc2ccccc21` (stereo not given), > 54.7 µM (inactive). As for `O=C(CSc1nnc(-c2cccc(Cl)c2)n1Cc1ccco1)Nc1ccc2c(c1)OCCO2`, the IC50 is > 54.7 µM (inactive). As to `Nc1c(C(=O)Nc2nccs2)sc2nc(-c3cccs3)cc(C(F)(F)F)c12`, the IC50 was > 18.2 µM (inactive). Next, `Clc1cccc(-c2nnc(SCc3nc4ccccc4[nH]3)n2-c2ccccc2)c1`: > 54.7 µM (inactive); `Cn1c(=O)c(C(=O)CN2CCCc3ccccc32)c(N)n(Cc2ccccc2)c1=O`: > 54.7 µM (inactive).

Turning to `O=c1c2ccccc2sn1-c1cc(S(=O)(=O)N2CCOCC2)ccc1N1CCOCC1`, the IC50 is 1.71 µM. In the case of `Cn1c(SCc2nc3ccccc3[nH]2)nnc1-c1cccc(Cl)c1` it was > 54.7 µM (inactive); in that of `Cc1c(CCC(=O)NCCCn2ccnc2)c(=O)oc2cc3oc4c(c3cc12)CCCC4`, 6.14 µM.
